# Read-outs that look alike come from different tables or passages of the source.
# Legend:
# [1] = test system: chronic CIA induced by using human CII; assay: Chronic CIA induced by human type II collagen; format: in vivo, Female DBA/1 Lac J strain mice; details: 0.1 mg dexamethasone/kg BW on Days 21 and 35
# Protocol: Effect of Sturgeon Notochord in a Chronic Arthritis Induced by Human Type II Collagen This experiment was conducted to investigate the effectiveness of sturgeon notochord in protecting mice from chronic CIA induced by using human CII (unlike other examples in this application which used bovine CII). Female DBA/1 Lac J strain mice, approximately 6-8 weeks of age, were obtained from Jackson Laboratories of Bar Harbor, Maine. Animals were acclimated to their surroundings for 7 days. A standard mouse chow (Teklad diet) and water were provided for ad libitum consumption.
# The chronic CIA induction was achieved by immunizing each mice on Day 0 and Day 21 at the base of the tail with […] of human CII which was emulsified in CFA. Animals in the vehicle control group and Dexamethasone control group received 0.01 M acetic acid on Days −10, −7, −5, and −2 and 0.1 mg dexamethasone/kg BW on Days 21 and 35, respectively. The mice receiving sturgeon notochord were divided into three groups and they were dosed with 100 mg collagen per dose dissolved/suspended in 0.01 M acetic acid and 0.3 ml was administered. Group 1 received sturgeon notochord on Days −10, −7, −5, and −2; Group 2, on Days 7, 10, 12, and 14; Group 3, Days 28, 31, 33, and 35.
# Mice were inspected daily for the onset of CIA, characterized by erythema and edema. Limbs were clinically evaluated and graded on a scale of 0 to 6 (0, absence of arthritis; 0.5, one or more digits swollen or only the paw swollen; 1, entire paw swollen; 2, entire paw severely swollen; 3, mild deformity after inflammation subsides; 4, severe deformity; 5, mild ankylosis with partial loss of joint function in the paw; 6, severe ankylosis with total loss of joint function in the paw). […]
# [2] = test system: collagen-induced arthritis (CIA); assay: Dose response of sturgeon notochord in protecting mice from CIA; format: in vivo, DBA/1 Lac J strain mice; details: 0.1 mg/kg p.o.
# Protocol: To evaluate the dose response of sturgeon notochord in protecting mice from CIA, this experiment was conducted in a manner similar to Examples II and III. The mice were DBA/1 Lac J strain supplied by Jackson Laboratories of Bar Harbor, Maine. All mice were female and about 6-8 weeks of age. Eight groups of 10-15 mice per group were acclimated to their surroundings for 7 days. A standard mouse chow and water were provided for ad libitum consumption to all animals.
# On Days[…] −10, −7, −5 and −2 prior to immunization, mice were sensitized by sturgeon notochord. A group fed only vehicle was used as the negative control and a group fed with an effective dose of dexamethasone (0.1 mg/kg per os) was used as the positive control. Sturgeon notochord was obtained from farm raised sturgeon and pulverized in liquid nitrogen. The dose level of sturgeon notochord was equilibrated to 1, 3, 10, 30, 100 or 300 μg of collagen per dose based on the protein and collagen content. Sturgeon notochord was dissolved/suspended in 0.01 M acetic acid and 0.3 ml was administered to each mouse with a ball tipped feeding needle.
# On Day 0, the mice were immunized at the base of the tail with 100 μg of bovine CII which was emulsified in CFA. On Day 21, the mice were injected subcutaneously with 50 μg of LPS.
# Mice were inspected daily for the onset of CIA, characterized by erythema and edema. Limbs were clinically evaluated and graded on a scale of 0 to 6 as described in Example III.
# The inventors continued to observe four selected groups (vehicle control group, sturgeon notochord 0.105 mg/dose group, sturgeon notochord 1.053 mg/dose group, and dexamethasone group) until Day 79. Severity scores plotted against days post-sensitization are found in FIG. 1.
# [3] = test system: collagen-induced arthritis (CIA); format: in vivo
# Protocol: These Examples were conducted to investigate the effectiveness of sturgeon notochord in protecting mice from collagen-induced arthritis (CIA). Female DBA/1 Lac J strain mice, approximately 6-8 weeks of age, were obtained from Jackson Laboratories of Bar Harbor, Maine. Three groups of 20 mice per group were acclimated to their surroundings for 7 days. A standard mouse chow (Purina Certified Mouse Chow #5015; 11% by wt. fat; collagen-free) and water were provided for ad libitum consumption to all animals.
# Bovine serum albumin (a protein derived from non-connective tissue) and cod skin gelatin (a protein derived from another connective tissue containing Type I collagen of a fish) served as negative controls. Sturgeon notochord was obtained from farm raised sturgeon and pulverized in liquid nitrogen. The level of each test composition was equilibrated to a 300 μg protein dose based on protein (including collagen) content. Test articles were dissolved/suspended in 0.01 M acetic acid and 0.3 ml was administered per dose to each mouse with a ball tipped feeding needle.
# On Day 0, the mice were immunized at the base of the tail with 100 μg of bovine CII which was emulsified in Complete Freund's Adjuvant (CFA). On Day 7, a second booster dose of 100 μg bovine CII in CFA was administered by the same route. On Day 14, the mice were injected subcutaneously with 100 μg of lipopolysaccharide (LPS). This protocol represents a mild induction of CIA.
# Mice were inspected daily for the onset of CIA, characterized by erythema and edema. Limbs were clinically evaluated and graded on a scale of 0 to 3 (0, absence of arthritis; 1, mild swelling and erythema; 2, swelling and erythema of both tarsus and ankle; 3, ankylosis and bone deformity). […] All mice were euthanized by CO2 on Day 50.
molecule,measurement,setting,value
C[C@@H]1C[C@H]2[C@@H]3CCC4=CC(=O)C=C[C@]4(C)[C@@]3(F)[C@@H](O)C[C@]2(C)[C@@]1(O)C(=O)CO [Dexamethasone],% incidence,[1]; D28,33%
same,severity score,[1]; D28,0.25
same,% incidence,[1]; D35,67%
same,severity score,[1]; D35,0.42
same,% incidence,[1]; D42,100%
same,severity score,[1]; D42,1.75
same,% incidence,[1]; D49,100%
same,severity score,[1]; D49,3.58
same,% of incidence,[2]; D26,40%
same,severity score,[2]; D26,1.0 ± 0.4
same,% of incidence,[2]; D28,50%
same,severity score,[2]; D28,1.1 ± 0.4
same,% of incidence,[2]; D35,50%
same,severity score,[2]; D35,1.1 ± 0.4
bovine serum albumin [BSA],median day of onset,"[3]; 300 μg protein dose oral on Days −10, −7, −5 and −2",17 days
same,# animals with arthritis,"[3]; Day 20, 300 μg protein dose oral on Days −10, −7, −5 and −2",12
same,# animals with arthritis,"[3]; Day 28, 300 μg protein dose oral on Days −10, −7, −5 and −2",12
same,# animals with arthritis,"[3]; Day 40, 300 μg protein dose oral on Days −10, −7, −5 and −2",12
same,# animals with arthritis,"[3]; Day 50, 300 μg protein dose oral on Days −10, −7, −5 and −2",14
same,% onset,"[3]; calculated based on the Day 50 data, 300 μg protein dose",78%
same,mean severity score,"[3]; scale of 0 to 3, based on Day 20, 29, 34, 43 and 50 data, 300 μg protein dose",2.05

# From patent US6423347B1, “Method and product using sturgeon notochord for alleviating the symptoms of arthritis” (Abbott Laboratories, priority 1997, dated 2002)
